Source: patent US12227515B2, “In-flow photooxygenation of aminothienopyridinones generates novel PTP4A3 phosphatase inhibitors” (University of Virginia Patent Foundation, priority 2018, dated 2025)

Assays:
[1] = target: recombinant human His6-tagged PTP4A2 (Homo sapiens (Human), UniProt Q12974); assay: In vitro biochemical analysis of PTP4A inhibition, DiFMUP substrate; settings: DiFMUP 12 μM, 25 minutes, 25° C.; mean ± S.E.M.
[2] = target: recombinant human His6-tagged PTP4A3 (Homo sapiens (Human), UniProt O75365); assay: as above; settings: for preference among the PTP4A family members: PTP4A3 versus PTP4A1 and PTP4A2, from IC50 values
Chain of recombinant human His6-tagged PTP4A3 (O75365 whole entry): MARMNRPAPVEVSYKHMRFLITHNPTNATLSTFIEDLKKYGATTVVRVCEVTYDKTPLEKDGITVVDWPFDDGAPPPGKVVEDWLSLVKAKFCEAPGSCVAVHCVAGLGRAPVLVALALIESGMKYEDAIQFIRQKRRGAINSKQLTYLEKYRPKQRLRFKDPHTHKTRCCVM

Chain of recombinant human His6-tagged PTP4A2 (Q12974 whole entry): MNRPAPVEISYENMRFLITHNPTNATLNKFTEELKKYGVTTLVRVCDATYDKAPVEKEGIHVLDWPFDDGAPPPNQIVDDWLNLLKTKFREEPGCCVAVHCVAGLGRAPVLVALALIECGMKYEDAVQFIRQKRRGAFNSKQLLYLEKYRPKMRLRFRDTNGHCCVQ

IC50 [1] [nM]	IC50 PTP4A3 ([2]; DiFMUP 12 μM, 25 minutes, 25° C., mean ± S.E.M.)	Structure (SMILES)	preference among the PTP4A family members [2]
264		CN1C(=O)C(=N)c2sc(-c3ccccc3)cc2C1=O [Compound 9p, 7-Imino-5-methyl-2-phenylthieno[3,2-c]pyridine-4,6(5H,7H)-dione]	even more pronounced preference for PTP4A3 compared with PTP4A2
		N=C1C(=O)NC(=O)c2cc(-c3ccc(OCCN4CCOCC4)cc3)sc21 [Compound 9o, 7-Imino-2-(4-(2-morpholinoethoxy)phenyl)thieno[3,2-c]pyridine-4,6(5H,7H)-dione]	little preference
	failed to inhibit PTP4A3	O=c1[nH]c(=O)c2cc(-c3ccccc3)sc2[nH]1 [JMS-038, 6-phenylthieno[2,3-d]pyrimidine-2,4(1H,3H)-dione, reference compound]	
113		N=C1C(=O)NC(=O)c2cc(-c3ccccc3Cl)sc21 [Compound 9k, 2-(2-Chlorophenyl)-7-iminothieno[3,2-c]pyridine-4,6(5H,7H)-dione]	even more pronounced preference for PTP4A3 compared with PTP4A2
